7 molecules from PubChem BioAssay (NCI) can be followed below.

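Values below derive from 48-hour exposures of cells grown in 96-well plates, with endpoints linearly interpolated between the two concentrations bracketing the appropriate inhibition level. TGI marks complete inhibition of growth.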 Some results are limits rather than exact numbers.

Test systems include 786-0 renal; ACHN renal; HL-60(TB) leukemia; HS 578T breast; KM12 colon; MALME-3M melanoma; MDA-MB-435; MOLT-4 leukemia; NCI-H226 lung; NCI-H460 lung; NCI-H522 lung; NCI/ADR-RES ovarian; OVCAR-3 ovarian; OVCAR-5 ovarian; RXF 393 renal; SF-268 CNS; SK-OV-3 ovarian; SN12C renal; SW-620 colon.
Test in all cases: NCI tumour cell line growth inhibition, 48 h

In the case of `COc1ccc2c(O)c(S(=O)(=O)c3ccc(C)cc3)c(=O)oc2c1OC`, the TGI with 786-0 renal, with ACHN renal, in the assay on HL-60(TB) leukemia, in the assay with HS 578T breast, with KM12 colon and in the assay on MALME-3M melanoma was > 100 µM in each case. Further, the TGI in the assay with MDA-MB-435, with MOLT-4 leukemia, in the assay on NCI-H226 lung, with NCI-H460 lung, in the assay on NCI-H522 lung and in the assay on NCI/ADR-RES ovarian was > 100 µM each time. Further, the TGI with OVCAR-3 ovarian, in the assay with OVCAR-5 ovarian, with RXF 393 renal, in the assay on SF-268 CNS, with SK-OV-3 ovarian and in the assay with SN12C renal was > 100 µM throughout. Also, the TGI with SW-620 colon was > 100 µM.
For the molecule `Cc1ccc(-c2c(-c3ccccc3)[nH]c(C)c2C(=O)ONC(=O)c2ccccc2)cc1`, the TGI with 786-0 renal is 12.6 µM; with ACHN renal, 4.15 µM; in the assay on HL-60(TB) leukemia it was 2.02 µM; in the assay with HS 578T breast, 5.39 µM; in the assay with KM12 colon, 26.4 µM; with MALME-3M melanoma it was 24.7 µM. For the same molecule, the TGI in the assay on MDA-MB-435 is 5.49 µM; in the assay with MOLT-4 leukemia it was 7.73 µM; in the assay with NCI-H226 lung, 19.1 µM; in the assay with NCI-H460 lung, 5.21 µM; with NCI-H522 lung, 6.48 µM; with NCI/ADR-RES ovarian it was 18.3 µM. Also, the TGI was determined as 17.4 µM in the assay on OVCAR-3 ovarian; 32.3 µM in the assay on OVCAR-5 ovarian; 5.83 µM in the assay with RXF 393 renal; 7.31 µM in the assay on SF-268 CNS; 30 µM with SK-OV-3 ovarian; 8.36 µM in the assay with SN12C renal. For the same molecule, in the assay on SW-620 colon, the TGI was 41.8 µM.
Take `Oc1[nH]c2ccccc2c1C1=Nc2ccccc2/C1=N\OCCOC1OCC(O)C(O)C1O` (stereo not drawn): the TGI with 786-0 renal, in the assay on ACHN renal, with HL-60(TB) leukemia, in the assay with HS 578T breast, in the assay with KM12 colon and with MALME-3M melanoma was > 100 µM throughout. Also, the TGI in the assay with MDA-MB-435, with MOLT-4 leukemia, with NCI-H226 lung, in the assay on NCI-H460 lung, in the assay with NCI-H522 lung and in the assay on NCI/ADR-RES ovarian was > 100 µM in each case. Also, the TGI in the assay on OVCAR-3 ovarian is > 100 µM; in the assay on OVCAR-5 ovarian, > 100 µM; with RXF 393 renal it was > 100 µM; with SF-268 CNS, > 100 µM; in the assay with SK-OV-3 ovarian, 7.99 µM; in the assay with SN12C renal it was > 100 µM. In addition, the TGI in the assay on SW-620 colon was > 100 µM.
Turning to `CCOP(=O)(OCC)/C(C#N)=C/c1ccccn1`, the TGI with 786-0 renal, in the assay with ACHN renal, in the assay with HL-60(TB) leukemia, in the assay on HS 578T breast, in the assay on KM12 colon and in the assay with MALME-3M melanoma was > 100 µM throughout. The TGI with MDA-MB-435, with MOLT-4 leukemia, in the assay on NCI-H226 lung, with NCI-H460 lung, with NCI-H522 lung and with NCI/ADR-RES ovarian was > 100 µM each time. Besides, the TGI in the assay with OVCAR-3 ovarian, in the assay with OVCAR-5 ovarian, with RXF 393 renal, in the assay on SF-268 CNS, in the assay with SK-OV-3 ovarian and in the assay with SN12C renal was > 100 µM in each case. Also, in the assay on SW-620 colon, the TGI was > 100 µM.
Turning to `Nc1[nH]c(=O)nc2snnc12`, the TGI in the assay on 786-0 renal, in the assay on ACHN renal, with HL-60(TB) leukemia, in the assay on HS 578T breast, in the assay on KM12 colon and in the assay on MALME-3M melanoma was > 100 µM in each case. Moreover, the TGI with MDA-MB-435, with MOLT-4 leukemia, in the assay with NCI-H226 lung, with NCI-H460 lung, in the assay on NCI-H522 lung and in the assay on NCI/ADR-RES ovarian was > 100 µM in each case. Further, the TGI was > 100 µM with OVCAR-3 ovarian; > 100 µM in the assay with OVCAR-5 ovarian; > 26.8 µM in the assay on RXF 393 renal; > 51.7 µM with SF-268 CNS; > 100 µM in the assay with SK-OV-3 ovarian; > 100 µM in the assay on SN12C renal. Further, the TGI in the assay on SW-620 colon is > 100 µM.
Consider `CC(C)(C)C(=O)Oc1ccc(/C=C/C(=O)c2ccc(OC(=O)C(C)(C)C)cc2)cc1`, for which the TGI was > 100 µM with 786-0 renal; > 100 µM in the assay on ACHN renal; 75.5 µM with HL-60(TB) leukemia; 86.9 µM in the assay with HS 578T breast; 38.5 µM in the assay with KM12 colon; > 100 µM in the assay with MALME-3M melanoma. The TGI with MDA-MB-435 was > 100 µM; with MOLT-4 leukemia, 53.2 µM; in the assay on NCI-H226 lung it was > 100 µM; in the assay with NCI-H460 lung, > 100 µM; in the assay with NCI-H522 lung it was 8.78 µM; with NCI/ADR-RES ovarian it was > 100 µM. Besides, the TGI in the assay on OVCAR-3 ovarian was 72 µM; with OVCAR-5 ovarian it was > 100 µM; in the assay with RXF 393 renal it was 87.3 µM; in the assay with SF-268 CNS it was > 100 µM; in the assay on SK-OV-3 ovarian, > 100 µM; in the assay with SN12C renal it was > 100 µM. In addition, the TGI with SW-620 colon was > 100 µM.
As to `C=C1C[C@@H](O)[C@@H](Br)C(C)(C)[C@@]12C=CC(=O)CC2`, the TGI is > 100 µM in the assay with 786-0 renal; > 100 µM in the assay on ACHN renal; > 100 µM in the assay with HL-60(TB) leukemia; > 100 µM with HS 578T breast; 5.31 µM with KM12 colon; > 100 µM with MALME-3M melanoma. Moreover, the TGI is > 100 µM in the assay with MDA-MB-435; > 100 µM in the assay with MOLT-4 leukemia; > 26.3 µM in the assay with NCI-H226 lung; > 100 µM in the assay on NCI-H460 lung; > 100 µM in the assay with NCI-H522 lung; > 100 µM with NCI/ADR-RES ovarian. Moreover, the TGI is > 100 µM in the assay on OVCAR-3 ovarian; 13.7 µM in the assay on OVCAR-5 ovarian; > 100 µM in the assay on RXF 393 renal; > 100 µM with SF-268 CNS; > 100 µM with SK-OV-3 ovarian; > 100 µM in the assay on SN12C renal. Further, the TGI in the assay on SW-620 colon is > 100 µM.
